The values that follow come from ChEMBL document CHEMBL1275601, “Striking species difference in the contribution of concentrative nucleoside transporter 2 to nucleoside uptake between mouse and rat hepatocytes” (Antimicrob Agents Chemother, 2010).

Format in all cases: cell-based
For experiment [1], the target named is T1, Equilibrative nucleoside transporter 1 (Mus musculus) (UniProt Q9JIM1).
T1 sequence (whole entry): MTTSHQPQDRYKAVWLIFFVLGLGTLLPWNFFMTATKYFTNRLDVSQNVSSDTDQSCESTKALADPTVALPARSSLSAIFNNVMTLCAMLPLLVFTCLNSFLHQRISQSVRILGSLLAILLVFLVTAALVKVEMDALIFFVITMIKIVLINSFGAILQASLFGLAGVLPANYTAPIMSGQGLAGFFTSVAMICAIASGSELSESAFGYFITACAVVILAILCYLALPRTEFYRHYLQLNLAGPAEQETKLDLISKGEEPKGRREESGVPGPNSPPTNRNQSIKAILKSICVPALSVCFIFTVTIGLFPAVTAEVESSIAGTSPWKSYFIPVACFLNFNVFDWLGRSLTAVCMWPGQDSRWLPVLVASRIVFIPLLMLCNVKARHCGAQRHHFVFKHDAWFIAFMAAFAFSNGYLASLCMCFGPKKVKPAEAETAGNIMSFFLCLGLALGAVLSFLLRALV
Kind of experiment: Transport through ENT1 in mouse hepatocytes by oil filtration assay in presence 100 uM of transporter inhibitor NBMRP. To be noted: Hepatocyte.

The target in experiment [2] is T2, Equilibrative nucleoside transporter 1 (Rattus norvegicus) (UniProt O54698).
T2 sequence (whole entry): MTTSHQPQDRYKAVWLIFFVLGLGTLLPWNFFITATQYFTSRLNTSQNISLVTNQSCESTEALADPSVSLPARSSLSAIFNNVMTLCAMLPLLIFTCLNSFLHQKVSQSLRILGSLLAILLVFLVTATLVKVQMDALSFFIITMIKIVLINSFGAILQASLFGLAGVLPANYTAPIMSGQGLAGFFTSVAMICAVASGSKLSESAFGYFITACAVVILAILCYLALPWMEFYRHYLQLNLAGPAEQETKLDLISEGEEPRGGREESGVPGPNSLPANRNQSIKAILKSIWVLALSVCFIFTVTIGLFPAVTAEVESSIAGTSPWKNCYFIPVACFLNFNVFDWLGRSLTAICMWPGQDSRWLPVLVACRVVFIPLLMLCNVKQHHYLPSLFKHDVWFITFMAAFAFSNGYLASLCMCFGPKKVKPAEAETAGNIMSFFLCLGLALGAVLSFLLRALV
In words: Transport through ENT1 in rat hepatocytes by oil filtration assay in presence 100 nM of transporter inhibitor NBMRP. To be noted: Hepatocyte.

Experiment [3] addresses T3, Sodium/nucleoside cotransporter 1 (Rattus norvegicus) (UniProt Q62674).
T3 sequence (whole entry): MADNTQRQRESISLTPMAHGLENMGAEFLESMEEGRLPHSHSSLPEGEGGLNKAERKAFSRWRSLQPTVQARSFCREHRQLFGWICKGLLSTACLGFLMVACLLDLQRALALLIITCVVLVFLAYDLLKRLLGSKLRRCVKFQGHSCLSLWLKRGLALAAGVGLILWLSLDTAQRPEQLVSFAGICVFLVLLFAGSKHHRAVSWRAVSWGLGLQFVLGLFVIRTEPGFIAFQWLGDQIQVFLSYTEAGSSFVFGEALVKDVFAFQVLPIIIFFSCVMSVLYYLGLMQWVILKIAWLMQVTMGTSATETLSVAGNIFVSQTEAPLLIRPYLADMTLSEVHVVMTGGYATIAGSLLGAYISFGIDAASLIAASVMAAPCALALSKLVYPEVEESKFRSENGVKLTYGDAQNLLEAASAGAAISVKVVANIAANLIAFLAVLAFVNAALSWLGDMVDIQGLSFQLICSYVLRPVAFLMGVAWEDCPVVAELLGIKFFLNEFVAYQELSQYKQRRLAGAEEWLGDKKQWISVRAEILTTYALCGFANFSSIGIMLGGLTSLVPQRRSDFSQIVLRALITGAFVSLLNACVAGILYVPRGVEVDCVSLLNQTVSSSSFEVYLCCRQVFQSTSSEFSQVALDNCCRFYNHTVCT
In words: Transport through CNT1 in rat hepatocytes by oil filtration assay in presence of sodium ions in Kreb-henseleit buffer containing 100 uM NBMPR and thymidine. To be noted: Hepatocyte.

A further experiment relates to Hepatocyte. In words: Transport through CNT3 in rat hepatocytes by oil filtration assay.
The target of experiment [4] is T1, Equilibrative nucleoside transporter 1 (Mus musculus). In words: Transport through ENT1 in mouse hepatocytes by oil filtration assay in presence 100 nM of transporter inhibitor NBMRP. To be noted: Hepatocyte.
For experiment [5], the target named is T4, Sodium/nucleoside cotransporter 2 (Rattus norvegicus) (UniProt Q62773).
T4 sequence (whole entry): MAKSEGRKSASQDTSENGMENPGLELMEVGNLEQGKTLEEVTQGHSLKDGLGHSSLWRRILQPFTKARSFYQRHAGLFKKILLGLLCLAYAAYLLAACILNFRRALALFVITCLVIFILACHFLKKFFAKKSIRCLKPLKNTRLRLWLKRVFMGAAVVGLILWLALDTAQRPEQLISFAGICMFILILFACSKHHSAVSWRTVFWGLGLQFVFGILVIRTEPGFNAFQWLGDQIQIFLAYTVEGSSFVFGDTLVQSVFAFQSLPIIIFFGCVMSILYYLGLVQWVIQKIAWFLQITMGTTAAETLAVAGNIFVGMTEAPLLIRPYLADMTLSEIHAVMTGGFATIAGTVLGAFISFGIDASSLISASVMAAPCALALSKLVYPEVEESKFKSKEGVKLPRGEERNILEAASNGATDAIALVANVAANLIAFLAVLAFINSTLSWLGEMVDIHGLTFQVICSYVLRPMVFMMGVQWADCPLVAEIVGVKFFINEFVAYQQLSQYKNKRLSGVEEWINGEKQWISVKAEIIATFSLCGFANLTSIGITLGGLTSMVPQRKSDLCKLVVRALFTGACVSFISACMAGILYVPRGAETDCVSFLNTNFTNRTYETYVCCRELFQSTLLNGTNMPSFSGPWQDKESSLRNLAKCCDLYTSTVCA
Kind of experiment: Transport through CNT2 in rat hepatocytes by oil filtration assay in presence of sodium ions in Kreb-henseleit buffer containing 100 uM NBMPR and 1 mM uridine. To be noted: Hepatocyte.

The target in experiment [6] is T5, Equilibrative nucleoside transporter 2 (Rattus norvegicus) (UniProt O54699).
T5 sequence (whole entry): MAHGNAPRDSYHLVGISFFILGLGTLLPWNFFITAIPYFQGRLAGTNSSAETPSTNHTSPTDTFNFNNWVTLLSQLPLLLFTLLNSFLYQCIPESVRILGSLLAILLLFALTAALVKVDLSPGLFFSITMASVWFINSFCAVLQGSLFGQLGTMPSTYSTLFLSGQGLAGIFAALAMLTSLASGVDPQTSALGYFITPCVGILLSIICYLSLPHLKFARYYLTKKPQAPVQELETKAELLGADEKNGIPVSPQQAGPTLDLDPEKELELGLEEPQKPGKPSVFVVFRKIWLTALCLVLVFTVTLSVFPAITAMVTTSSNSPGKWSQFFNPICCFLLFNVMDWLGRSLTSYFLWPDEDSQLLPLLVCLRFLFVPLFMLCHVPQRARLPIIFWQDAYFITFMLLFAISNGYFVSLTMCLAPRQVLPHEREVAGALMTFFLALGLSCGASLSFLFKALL
In words: Transport through ENT2 in rat hepatocytes by oil filtration assay in presence of sodium ions in Kreb-henseleit buffer containing 100 uM NBMPR. To be noted: Hepatocyte.

Structures are written as SMILES. The source made the active and inactive calls. The calls are words filed in the database; no cut-off is given here.

Take `Nc1ncnc2c1ncn2[C@@H]1O[C@H](CO)[C@@H](O)[C@H]1O`: the outcome (in experiment [1]; in experiment [2]; in experiment [3]; in the experiment with Hepatocyte; in experiment [4]; in experiment [5]) was inactive. Moreover, the outcome in experiment [6] was Active.

With `NC(=O)c1ncn([C@@H]2O[C@H](CO)[C@@H](O)[C@H]2O)n1`, the result in experiment [1], in experiment [2], in experiment [3], in experiment [4] and in experiment [5] was inactive. In addition, the result (in the experiment with Hepatocyte; in experiment [6]) was Active.
